target: T1, PIP4K2C (Homo sapiens, UniProt Q8TBX8); assay: Enzyme Binding Assay (KINOMEscan): active site-directed competition binding to an immobilized ligand; design: purchased Eurofins DiscoverX, San Diego, CA 87-0007-1094; details: 11-point dose response, duplicate, top concentration 5 micromolar; read-out: Pip4k2c Kd: IC50
T1 sequence (Q8TBX8 1-421): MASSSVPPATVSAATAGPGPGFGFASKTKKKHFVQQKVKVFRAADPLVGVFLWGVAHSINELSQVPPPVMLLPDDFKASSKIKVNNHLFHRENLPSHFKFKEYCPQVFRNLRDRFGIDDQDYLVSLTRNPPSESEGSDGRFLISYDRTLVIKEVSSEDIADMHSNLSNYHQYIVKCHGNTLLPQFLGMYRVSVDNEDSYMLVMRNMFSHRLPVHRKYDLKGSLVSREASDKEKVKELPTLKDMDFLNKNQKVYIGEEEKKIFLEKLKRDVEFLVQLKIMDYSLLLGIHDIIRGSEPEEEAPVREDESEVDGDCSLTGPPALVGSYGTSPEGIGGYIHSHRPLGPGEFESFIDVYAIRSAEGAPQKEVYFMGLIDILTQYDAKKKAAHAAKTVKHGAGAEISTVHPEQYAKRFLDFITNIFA
Summary of the method: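 Active site-directed competition binding against an immobilized ligand. 11-point dose-response in duplicate, top concentration 5 micromolar; IC50 from a Hill equation fitted by the Levenberg-Marquardt algorithm.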

Row | SMILES | IC50 [nM]
1 | CC(=O)N[C@H]1CC[C@@H](Nc2ncc(Cl)c(-c3cccc(-n4ccccc4=O)c3)n2)CC1 [Compound 93, cis-N-((1s,4s)-4-((5-chloro-4-(3-(2-oxopyridin-1 (2H)-yl)phenyl)pyrimidin-2-yl)amino)cyclohexyl)acetamide] | < 500
2 | NC(=O)[C@H]1CCC[C@@H](Nc2ncc(Cl)c(C3CCN(C(=O)c4ccc(F)cc4)C3)n2)C1 (relative stereo) [Compound 135, cis-3-((5-chloro-4-(1-(4-fluorobenzoyl)pyrrolidin-3-yl)pyrimidin-2-yl)amino)cyclohexane-1-carboxamide] | < 500
3 | CC(=O)N[C@H]1CC[C@H](Nc2ncc(Cl)c(-c3cccc(-n4ccccc4=O)c3)n2)CC1 [Compound 102, trans-N-((1r,4r)-4-((5-chloro-4-(3-(2-oxopyridin-1 (2H)-yl)phenyl)pyrimidin-2-yl)amino)cyclohexyl)acetamide] | < 500
4 | O=C(C1CCNCC1)N1CCC(Nc2ncc(Cl)c(-c3cccc(-c4ccccc4)c3)n2)CC1 [Compound 2, (4-((4-([1,1′-biphenyl]-3-yl)-5-chloropyrimidin-2-yl)amino)piperidin-1-yl)(piperidin-4-yl)methanone] | < 500

Other lines, results leading:

Row | IC50 [nM] | SMILES
5 | < 500 | NC(=O)[C@H]1CC[C@H](Nc2ncc(F)c(-c3cccc(-c4cc[nH]c(=O)c4)c3)n2)CC1 [Compound 195, trans-4-((5-fluoro-4-(3-(2-oxo-1,2-dihydropyridin-4-yl)phenyl)pyrimidin-2-yl)amino)cyclohexane-1-carboxamide]
6 | 1000 to 5000 | CC(=O)N[C@H]1CC[C@H](Nc2ncc(F)c(-n3cc(-n4ccccc4=O)cn3)n2)CC1 [Compound 260, trans-N-((1r,4r)-4-((5-fluoro-4-(4-(2-oxopyridin-1 (2H)-yl)-1H-pyrazol-1-yl)pyrimidin-2-yl)amino)cyclohexyl)acetamide]
7 | < 500 | NC(=O)[C@H]1CCC[C@@H](Nc2ncc(F)c(-c3cccc(-c4ccc(=O)[nH]c4)c3)n2)C1 (racemic) [Compound 201, cis-3-((5-fluoro-4-(3-(6-oxo-1,6-dihydropyridin-3-yl)phenyl)pyrimidin-2-yl)amino)cyclohexane-1-carboxamide]
8 | < 500 | CC(=O)N[C@H]1CC[C@H](Nc2ncc(F)c(-c3ccnc(C(C)(C)O)c3)n2)CC1 [Compound 241, trans-N-(4-((5-fluoro-4-(2-(2-hydroxypropan-2-yl)pyridin-4-yl)pyrimidin-2-yl)amino)cyclohexyl)acetamide]
9 | < 500 | NC(=O)[C@H]1CC[C@H](Nc2ncc(F)c(-c3ccnc(N4CCCC4=O)c3)n2)CC1 [Compound 262, trans-(1r,4r)-4-((5-fluoro-4-(2-(2-oxopyrrolidin-1-yl)pyridin-4-yl)pyrimidin-2-yl)amino)cyclohexane-1-carboxamide]

From patent US20260355196A1, “INHIBITORS AND DEGRADERS OF PIP4K PROTEIN” (Larkspur Biosciences, Inc., priority 2023, published 2026)
